# Data: patent US20110178064A1, “SPIRO CONDENSED […] DERIVATIVES FOR USE AS ANTIBACTERIAL” (A[…]&D, priority 2007, published 2011)
# Molecular target: Escherichia coli DNA gyrase A/B tetramer (Escherichia coli, UniProt P0AES4+P0AES6)
# Test: DNA gyrase supercoiling activity fluorescence polarisation assay
# Type: biochemical
# Conditions: not given
# Summary of the method: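 Gyrase supercoiling reactions quenched with 40 nM 5′-BODIPY-FL oligodeoxynucleotide triplex probe in pH 3.5 NaCl/sodium acetate buffer; fluorescence anisotropy read after 60 min (485/535 nm).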
# Chain of Escherichia coli DNA gyrase A/B tetramer (P0AES4 whole entry, one chain of several): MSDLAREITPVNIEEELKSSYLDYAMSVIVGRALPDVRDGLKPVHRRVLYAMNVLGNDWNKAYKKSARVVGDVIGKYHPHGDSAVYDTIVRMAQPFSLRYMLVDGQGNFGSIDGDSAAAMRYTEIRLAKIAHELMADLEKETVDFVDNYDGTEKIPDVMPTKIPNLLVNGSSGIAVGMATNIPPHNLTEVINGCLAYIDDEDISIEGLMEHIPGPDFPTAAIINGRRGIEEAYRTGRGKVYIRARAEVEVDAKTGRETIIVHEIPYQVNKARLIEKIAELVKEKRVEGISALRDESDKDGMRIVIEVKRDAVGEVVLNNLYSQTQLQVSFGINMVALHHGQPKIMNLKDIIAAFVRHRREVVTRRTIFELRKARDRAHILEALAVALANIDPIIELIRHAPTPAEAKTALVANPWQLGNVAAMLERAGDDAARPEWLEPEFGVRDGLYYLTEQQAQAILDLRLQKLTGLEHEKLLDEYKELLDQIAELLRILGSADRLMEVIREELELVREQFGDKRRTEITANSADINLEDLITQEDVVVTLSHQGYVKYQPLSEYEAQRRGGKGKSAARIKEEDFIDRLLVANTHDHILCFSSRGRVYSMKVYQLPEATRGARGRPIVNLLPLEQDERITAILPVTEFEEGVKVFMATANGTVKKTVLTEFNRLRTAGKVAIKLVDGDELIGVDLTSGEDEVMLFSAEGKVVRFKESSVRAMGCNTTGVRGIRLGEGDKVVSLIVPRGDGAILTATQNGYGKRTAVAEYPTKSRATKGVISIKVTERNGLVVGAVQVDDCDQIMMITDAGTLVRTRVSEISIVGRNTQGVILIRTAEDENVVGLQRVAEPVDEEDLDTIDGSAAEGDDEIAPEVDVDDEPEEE
row,Structure (SMILES),IC50
1,"C[C@@H]1CN2c3ccc(-c4ccnn4C)nc3CC3(C(=O)NC(=O)NC3=O)[C@H]2[C@H](C)O1 (relative stereo) [Example 70, (2R,4S,4aS)-rel-2,4-Dimethyl-8-(1-methyl-1H-pyrazol-5-yl)-1,2,4,4a-tetrahydro-2′H,6H-spiro[1,4-oxazino[4,3-a][1,5]naphthyridine-5,5′-pyrimidine]-2′,4′,6′(1′H,3′H)-trione]",3 µM
2,"C[C@@H]1CN2c3ncc(-c4nc5ccccc5[nH]4)cc3CC3(C(=O)NC(=O)NC3=O)[C@H]2[C@H](C)O1 (relative stereo) [Example 40, (6aS,7S,9R)-rel-3-(1H-Benzimidazol-2-yl)-7,9-dimethyl-6a,7,9,10-tetrahydro-2′H,5H-spiro[1,4-oxazino[4,3-a][1,8]naphthyridine-6,5′-pyrimidine]-2′,4′,6′(1′H,3′H)-trione]",6 µM
3,"C[C@@H]1CN2c3ccc(-c4ccnnc4)nc3CC3(C(=O)NC(=O)NC3=O)[C@H]2[C@H](C)O1 (relative stereo) [Example 95, (2R,4S,4aS)-rel-2,4-Dimethyl-8-(pyridazin-4-yl)-1,2,4,4a-tetrahydro-2′H,6H-spiro[1,4-oxazino[4,3-a][1,5]naphthyridine-5,5′-pyrimidine]-2′,4′,6′(1′H,3′H)-trione]",2 µM
4,"C[C@@H]1CN2c3cnc(Br)cc3CC3(C(=O)NC(=O)NC3=O)[C@H]2[C@H](C)O1 (relative stereo) [Example 3, (6aS,7S,9R)-rel-3-Bromo-7,9-dimethyl-6a,7,9,10-tetrahydro-1′H,5H-spiro[[1,4]oxazino[4,3-a][1,7]naphthyridine-6,5′-pyrimidine]-2′,4′,6′(3′H)-trione]",11 µM
5,"C[C@@H]1CN2c3cnc(-c4ccccn4)cc3CC3(C(=O)NC(=O)NC3=O)[C@H]2[C@H](C)O1 (relative stereo) [Example 55, (6aS,7S,9R)-rel-7,9-Dimethyl-3-(pyridin-2-yl)-6a,7,9,10-tetrahydro-2′H,5H-spiro[1,4-oxazino[4,3-a][1,7]naphthyridine-6,5′-pyrimidine]-2′,4′,6′(1′H,3′H)-trione]",21 µM
6,"C[C@@H]1CN2c3ncc(-c4cncnc4)cc3CC3(C(=O)NC(=O)NC3=O)[C@H]2[C@H](C)O1 (relative stereo) [Example 45, (6aS,7S,9R)-rel-7,9-Dimethyl-3-(pyrimidin-5-yl)-6a,7,9,10-tetrahydro-2′H,5H-spiro[1,4-oxazino[4,3-a][1,8]naphthyridine-6,5′-pyrimidine]-2′,4′,6′(1′H,3′H)-trione]",30 µM
7,"C[C@@H]1CN2c3cnc(-c4cnn(C)c4)cc3CC3(C(=O)NC(=O)NC3=O)[C@H]2[C@H](C)O1 (relative stereo) [Example 66, (6aS,7S,9R)-rel-7,9-dimethyl-3-(1-methyl-1H-pyrazol-4-yl)-6a,7,9,10-tetrahydro-2′H,5H-spiro[1,4-oxazino[4,3-a][1,7]naphthyridine-6,5′-pyrimidine]-2′,4′,6′(1′H,3′H)-trione]",> 83 µM

# Same assay, conditions: E. coli DNA gyrase supercoiling; asterisk: no IC50 obtained at or below the indicated concentration; read-out: IC50
row,Structure (SMILES),IC50
1,"CC1CN2c3ncc(-c4cn[nH]c4)cc3CC3(C(=O)NC(=O)NC3=O)C2C(C)O1 [Example 44, (6aS,7S,9R)-rel-7,9-Dimethyl-3-(1H-pyrazol-4-yl)-6a., 7,9,10-tetrahydro-2′H,5H-spiro[1,4-oxazino[4,3-a][1,8]naphthyridine-6,5′-pyrimidine]-2′,4′,6′(1′H,3′H)-trione]",> 10 µM
2,"C[C@@H]1CN2c3ncc(-c4ccnnc4)cc3CC3(C(=O)NC(=O)NC3=O)[C@H]2[C@H](C)O1 (relative stereo) [Example 94, (6aS,7S,9R)-rel-7,9-Dimethyl-3-(pyridazin-4-yl)-6a,7,9,10-tetrahydro-2′H,5H-spiro[1,4-oxazino[4,3-a][1,8]naphthyridine-6,5′-pyrimidine]-2′,4′,6′(1′H, 3H)-trione]",7 µM
